Experimental data: PubChem BioAssay (NCI)
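Each compound was tested at five concentrations against cells in 96-well plates for 48 hours. Here, GI50 denotes the concentration required for 50% inhibition of growth. At the TGI there is no net growth.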

Experiments:
Experiment in all cases: growth of human tumour cells (NCI), 48 h
MOLT-4 leukemia = test system: MOLT-4 leukemia
NCI/ADR-RES ovarian = test system: NCI/ADR-RES ovarian
NCI-H226 lung = test system: NCI-H226 lung
NCI-H460 lung = test system: NCI-H460 lung
SW-620 colon = test system: SW-620 colon
HCC-2998 colon = test system: HCC-2998 colon
KM12 colon = test system: KM12 colon
LOX IMVI melanoma = test system: LOX IMVI melanoma
UO-31 renal = test system: UO-31 renal
MDA-MB-435 = test system: MDA-MB-435
OVCAR-5 ovarian = test system: OVCAR-5 ovarian
M14 melanoma = test system: M14 melanoma
HS 578T breast = test system: HS 578T breast
SNB-19 CNS = test system: SNB-19 CNS
IGROV1 ovarian = test system: IGROV1 ovarian
OVCAR-8 ovarian = test system: OVCAR-8 ovarian
MDA-MB-468 breast = test system: MDA-MB-468 breast
A549 NSCLC = test system: A549 NSCLC
SK-MEL-28 melanoma = test system: SK-MEL-28 melanoma
NCI-H522 lung = test system: NCI-H522 lung
UACC-62 melanoma = test system: UACC-62 melanoma
BT-549 breast = test system: BT-549 breast
COLO 205 colon = test system: COLO 205 colon
MDA-MB-231 breast = test system: MDA-MB-231 breast
DU-145 prostate = test system: DU-145 prostate
SN12C renal = test system: SN12C renal
SF-268 CNS = test system: SF-268 CNS
A498 renal = test system: A498 renal
HT29 colon = test system: HT29 colon
SK-MEL-2 melanoma = test system: SK-MEL-2 melanoma
HL-60(TB) leukemia = test system: HL-60(TB) leukemia
SF-295 CNS = test system: SF-295 CNS
NCI-H23 lung = test system: NCI-H23 lung
HCT-116 colon = test system: HCT-116 colon
SF-539 CNS = test system: SF-539 CNS
T-47D breast = test system: T-47D breast
OVCAR-4 ovarian = test system: OVCAR-4 ovarian
SNB-75 CNS = test system: SNB-75 CNS
MALME-3M melanoma = test system: MALME-3M melanoma
K-562 leukemia = test system: K-562 leukemia
CCRF-CEM leukemia = test system: CCRF-CEM leukemia
EKVX NSCLC = test system: EKVX NSCLC
MCF7 breast = test system: MCF7 breast
PC-3 prostate = test system: PC-3 prostate
HOP-62 NSCLC = test system: HOP-62 NSCLC
SR leukemia = test system: SR leukemia
TK-10 renal = test system: TK-10 renal
U251 CNS = test system: U251 CNS
HOP-92 NSCLC = test system: HOP-92 NSCLC
SK-MEL-5 melanoma = test system: SK-MEL-5 melanoma
ACHN renal = test system: ACHN renal
SK-OV-3 ovarian = test system: SK-OV-3 ovarian
RXF 393 renal = test system: RXF 393 renal
UACC-257 melanoma = test system: UACC-257 melanoma
OVCAR-3 ovarian = test system: OVCAR-3 ovarian
786-0 renal = test system: 786-0 renal
HCT-15 colon = test system: HCT-15 colon
CAKI-1 renal = test system: CAKI-1 renal
RPMI-8226 leukemia = test system: RPMI-8226 leukemia

Compound `COc1ccccc1/C=C/c1cccc(NC(=S)NCCCCN(C)C)c1` has a GI50 (MOLT-4 leukemia) of 13.3 µM, a TGI (MOLT-4 leukemia) of 32.2 µM and a GI50 (NCI/ADR-RES ovarian) of 14.9 µM. It also gave a TGI (NCI/ADR-RES ovarian) of 37.9 µM, a GI50 (NCI-H226 lung) of 10.2 µM and a TGI (NCI-H226 lung) of 27.4 µM. For the same compound, the GI50 (NCI-H460 lung) was 12.5 µM, the TGI (NCI-H460 lung) was 27.8 µM and the GI50 (SW-620 colon) was 14.5 µM. The TGI (SW-620 colon) was 31.7 µM, the GI50 (HCC-2998 colon) was 13.2 µM and the TGI (HCC-2998 colon) was 27.2 µM. It also gave a GI50 (KM12 colon) of 16.1 µM, a TGI (KM12 colon) of 32.1 µM and a GI50 (LOX IMVI melanoma) of 11.7 µM. For the same compound, the TGI (LOX IMVI melanoma) was 25 µM, the GI50 (UO-31 renal) was 13.7 µM and the TGI (UO-31 renal) was 27.7 µM. For the same compound, the GI50 (MDA-MB-435) was 3.82 µM, the TGI (MDA-MB-435) was 15.7 µM and the GI50 (OVCAR-5 ovarian) was 15.3 µM. It also gave a TGI (OVCAR-5 ovarian) of 29 µM, a GI50 (M14 melanoma) of 12.1 µM and a TGI (M14 melanoma) of 26.5 µM. It also gave a GI50 (HS 578T breast) of 18.3 µM, a TGI (HS 578T breast) of 45.2 µM and a GI50 (SNB-19 CNS) of 17.5 µM. For the same compound, the TGI (SNB-19 CNS) was 34.7 µM, the GI50 (IGROV1 ovarian) was 17 µM and the TGI (IGROV1 ovarian) was 32.3 µM. For the same compound, the GI50 (OVCAR-8 ovarian) was 17 µM, the TGI (OVCAR-8 ovarian) was 34.5 µM and the GI50 (MDA-MB-468 breast) was 10.1 µM. It also gave a TGI (MDA-MB-468 breast) of 22.6 µM, a GI50 (A549 NSCLC) of 16.3 µM and a TGI (A549 NSCLC) of 34.4 µM. For the same compound, the GI50 (SK-MEL-28 melanoma) was 15.9 µM, the TGI (SK-MEL-28 melanoma) was 29.5 µM and the GI50 (NCI-H522 lung) was 15.2 µM. For the same compound, the TGI (NCI-H522 lung) was 31.3 µM, the GI50 (UACC-62 melanoma) was 15.5 µM and the TGI (UACC-62 melanoma) was 29.3 µM. The GI50 (BT-549 breast) was 17.6 µM, the TGI (BT-549 breast) was 33.3 µM and the GI50 (COLO 205 colon) was 13.6 µM. For the same compound, the TGI (COLO 205 colon) was 29.9 µM, the GI50 (MDA-MB-231 breast) was 14.1 µM and the TGI (MDA-MB-231 breast) was 27.8 µM. For the same compound, the GI50 (DU-145 prostate) was 15.9 µM, the TGI (DU-145 prostate) was 32.5 µM and the GI50 (SN12C renal) was 15 µM. The TGI (SN12C renal) was 29 µM, the GI50 (SF-268 CNS) was 15.3 µM and the TGI (SF-268 CNS) was 34.5 µM. The GI50 (A498 renal) was 16.5 µM, the TGI (A498 renal) was 30.3 µM and the GI50 (HT29 colon) was 5.8 µM. The TGI (HT29 colon) was 20.6 µM, the GI50 (SK-MEL-2 melanoma) was 16.1 µM and the TGI (SK-MEL-2 melanoma) was 31.3 µM. The GI50 (HL-60(TB) leukemia) was 12.4 µM, the TGI (HL-60(TB) leukemia) was 29.7 µM and the GI50 (SF-295 CNS) was 12.5 µM. It also gave a TGI (SF-295 CNS) of 26.1 µM, a GI50 (NCI-H23 lung) of 15.2 µM and a TGI (NCI-H23 lung) of 30.4 µM. The GI50 (HCT-116 colon) was 11.8 µM, the TGI (HCT-116 colon) was 28.6 µM and the GI50 (SF-539 CNS) was 13.4 µM. For the same compound, the TGI (SF-539 CNS) was 26.2 µM, the GI50 (T-47D breast) was 11.6 µM and the TGI (T-47D breast) was 27.3 µM. The GI50 (OVCAR-4 ovarian) was 14.9 µM, the TGI (OVCAR-4 ovarian) was 29.6 µM and the GI50 (SNB-75 CNS) was 12.1 µM. For the same compound, the TGI (SNB-75 CNS) was 27.2 µM, the GI50 (MALME-3M melanoma) was 15.8 µM and the TGI (MALME-3M melanoma) was 29.8 µM. The GI50 (K-562 leukemia) was 3.07 µM, the TGI (K-562 leukemia) was 13.3 µM and the GI50 (CCRF-CEM leukemia) was 12 µM. The TGI (CCRF-CEM leukemia) was 29.5 µM, the GI50 (EKVX NSCLC) was 14.9 µM and the TGI (EKVX NSCLC) was 31.3 µM. It also gave a GI50 (MCF7 breast) of 10.4 µM, a TGI (MCF7 breast) of 24.2 µM and a GI50 (PC-3 prostate) of 14.2 µM. It also gave a TGI (PC-3 prostate) of 30.5 µM, a GI50 (HOP-62 NSCLC) of 16.2 µM and a TGI (HOP-62 NSCLC) of 32.3 µM. The GI50 (SR leukemia) was 11.7 µM, the TGI (SR leukemia) was 35.4 µM and the GI50 (TK-10 renal) was 17.3 µM. For the same compound, the TGI (TK-10 renal) was 32.3 µM, the GI50 (U251 CNS) was 17.6 µM and the TGI (U251 CNS) was 33.3 µM. For the same compound, the GI50 (HOP-92 NSCLC) was 10.1 µM, the TGI (HOP-92 NSCLC) was 25.9 µM and the GI50 (SK-MEL-5 melanoma) was 14 µM. It also gave a TGI (SK-MEL-5 melanoma) of 26.9 µM, a GI50 (ACHN renal) of 15.7 µM and a TGI (ACHN renal) of 29.1 µM. For the same compound, the GI50 (SK-OV-3 ovarian) was 17 µM, the TGI (SK-OV-3 ovarian) was 35.1 µM and the GI50 (RXF 393 renal) was 11.8 µM. The TGI (RXF 393 renal) was 26.2 µM, the GI50 (UACC-257 melanoma) was 16.3 µM and the TGI (UACC-257 melanoma) was 31.7 µM. It also gave a GI50 (OVCAR-3 ovarian) of 10.7 µM, a TGI (OVCAR-3 ovarian) of 26 µM and a GI50 (786-0 renal) of 15.8 µM. It also gave a TGI (786-0 renal) of 33.4 µM, a GI50 (HCT-15 colon) of 8.09 µM and a TGI (HCT-15 colon) of 21.6 µM. The GI50 (CAKI-1 renal) was 14.5 µM, the TGI (CAKI-1 renal) was 27.8 µM and the GI50 (RPMI-8226 leukemia) was 17.2 µM. The TGI (RPMI-8226 leukemia) was 51.8 µM.
